In the NIST ThermoML archive (doi:10.1021/acs.jced.6b00455):

Test: mn = molality of the nth substance listed, in mol/kg
Conditions: 101 kPa, Liquid, Alternating current cell with electrodes

C[N+](C)(C)CCO.O=C([O-])C(F)(F)C(F)(F)C(F)(F)C(F)(F)C(F)(F)F [(2-hydroxyethyl)trimethylammonium perfluorohexanoate] + O
Conditions	electrical conductivity [S/m]
293.15 K, m1 = 0.000375	0.0022
293.15 K, m1 = 0.000696	0.0041
293.15 K, m1 = 0.001138	0.0071
293.15 K, m1 = 0.001477	0.0092
293.15 K, m1 = 0.001847	0.0114
293.15 K, m1 = 0.002373	0.0146
293.15 K, m1 = 0.00271	0.0166
293.15 K, m1 = 0.003146	0.0191
293.15 K, m1 = 0.003565	0.0215
293.15 K, m1 = 0.003898	0.0234
293.15 K, m1 = 0.004204	0.0251
293.15 K, m1 = 0.004601	0.0273
293.15 K, m1 = 0.00507	0.03
293.15 K, m1 = 0.00539	0.0318
293.15 K, m1 = 0.005815	0.034
293.15 K, m1 = 0.006239	0.0364
293.15 K, m1 = 0.00662	0.0384
293.15 K, m1 = 0.007072	0.0408
293.15 K, m1 = 0.007377	0.0425
293.15 K, m1 = 0.007726	0.0443
293.15 K, m1 = 0.008233	0.047
293.15 K, m1 = 0.008702	0.0493
293.15 K, m1 = 0.009174	0.0517
293.15 K, m1 = 0.009518	0.0535
293.15 K, m1 = 0.009916	0.0557
293.15 K, m1 = 0.01043	0.0585
293.15 K, m1 = 0.01075	0.0607
293.15 K, m1 = 0.01135	0.0637
293.15 K, m1 = 0.01181	0.0666
293.15 K, m1 = 0.01223	0.0687
298.15 K, m1 = 0.00055	0.0043
298.15 K, m1 = 0.001005	0.0076
298.15 K, m1 = 0.001703	0.0126
298.15 K, m1 = 0.002219	0.0163
298.15 K, m1 = 0.002829	0.0204
298.15 K, m1 = 0.003309	0.0241
298.15 K, m1 = 0.003767	0.0269
298.15 K, m1 = 0.00423	0.0305
298.15 K, m1 = 0.004871	0.0338
298.15 K, m1 = 0.005471	0.0376
298.15 K, m1 = 0.005971	0.0408
298.15 K, m1 = 0.006435	0.0436
298.15 K, m1 = 0.007097	0.0477
298.15 K, m1 = 0.007791	0.0519
298.15 K, m1 = 0.008432	0.0557
298.15 K, m1 = 0.008992	0.0589
298.15 K, m1 = 0.009929	0.0652
298.15 K, m1 = 0.01068	0.0683
298.15 K, m1 = 0.0118	0.0747
298.15 K, m1 = 0.01243	0.0781
298.15 K, m1 = 0.01316	0.0821
298.15 K, m1 = 0.01446	0.0892
303.15 K, m1 = 0.000466	0.0041
303.15 K, m1 = 0.000808	0.0072
303.15 K, m1 = 0.001191	0.0104
303.15 K, m1 = 0.001576	0.0137
303.15 K, m1 = 0.002245	0.0181
303.15 K, m1 = 0.002642	0.0212
303.15 K, m1 = 0.00302	0.0242
303.15 K, m1 = 0.003455	0.0274
303.15 K, m1 = 0.003946	0.0311
303.15 K, m1 = 0.004412	0.0342
303.15 K, m1 = 0.004852	0.0375
303.15 K, m1 = 0.00528	0.0407
303.15 K, m1 = 0.005774	0.0442
303.15 K, m1 = 0.006137	0.0465
303.15 K, m1 = 0.006412	0.0486
303.15 K, m1 = 0.006786	0.0514
303.15 K, m1 = 0.00737	0.0557
303.15 K, m1 = 0.007781	0.0587
303.15 K, m1 = 0.008049	0.0605
303.15 K, m1 = 0.008511	0.0638
303.15 K, m1 = 0.008888	0.0663
303.15 K, m1 = 0.009262	0.0691
303.15 K, m1 = 0.009766	0.0727
303.15 K, m1 = 0.01022	0.0763
308.15 K, m1 = 0.00032	0.0028
308.15 K, m1 = 0.000664	0.006
308.15 K, m1 = 0.000979	0.0086
308.15 K, m1 = 0.001217	0.0105
308.15 K, m1 = 0.001449	0.0125
308.15 K, m1 = 0.001666	0.0142
308.15 K, m1 = 0.002016	0.017
308.15 K, m1 = 0.00224	0.0188
308.15 K, m1 = 0.002547	0.0213
308.15 K, m1 = 0.002821	0.0235
308.15 K, m1 = 0.003227	0.0266
308.15 K, m1 = 0.003473	0.0285
308.15 K, m1 = 0.003909	0.0318
308.15 K, m1 = 0.004306	0.0348
308.15 K, m1 = 0.004503	0.0365
308.15 K, m1 = 0.004751	0.0383
308.15 K, m1 = 0.005079	0.0408
308.15 K, m1 = 0.005473	0.0437
308.15 K, m1 = 0.005677	0.0452
308.15 K, m1 = 0.005898	0.0468
308.15 K, m1 = 0.006135	0.0484
308.15 K, m1 = 0.006462	0.0505
308.15 K, m1 = 0.006775	0.0522
308.15 K, m1 = 0.006992	0.0537
308.15 K, m1 = 0.007243	0.0556
308.15 K, m1 = 0.00746	0.0572
308.15 K, m1 = 0.007893	0.0603
308.15 K, m1 = 0.008273	0.063
308.15 K, m1 = 0.008535	0.0647
308.15 K, m1 = 0.008941	0.0676
308.15 K, m1 = 0.009261	0.0697
308.15 K, m1 = 0.009516	0.0711
308.15 K, m1 = 0.009886	0.0734
308.15 K, m1 = 0.01025	0.076
313.15 K, m1 = 0.00043	0.0042
313.15 K, m1 = 0.000832	0.008
313.15 K, m1 = 0.001262	0.012
313.15 K, m1 = 0.001627	0.0157
313.15 K, m1 = 0.002033	0.0192
313.15 K, m1 = 0.00239	0.0224
313.15 K, m1 = 0.002657	0.0247
313.15 K, m1 = 0.002904	0.0268
313.15 K, m1 = 0.003178	0.0292
313.15 K, m1 = 0.003443	0.0314
313.15 K, m1 = 0.003771	0.0349
313.15 K, m1 = 0.004146	0.038
313.15 K, m1 = 0.004519	0.0412
313.15 K, m1 = 0.004784	0.0433
313.15 K, m1 = 0.005179	0.0467
313.15 K, m1 = 0.005436	0.0487
313.15 K, m1 = 0.005698	0.051
313.15 K, m1 = 0.006109	0.0544
313.15 K, m1 = 0.006403	0.0567
313.15 K, m1 = 0.006614	0.0584
313.15 K, m1 = 0.006889	0.0606
313.15 K, m1 = 0.007247	0.0637
313.15 K, m1 = 0.007657	0.0669
313.15 K, m1 = 0.008021	0.0699
313.15 K, m1 = 0.008353	0.0725
313.15 K, m1 = 0.0086	0.0744
313.15 K, m1 = 0.008852	0.0763
313.15 K, m1 = 0.009114	0.0783
313.15 K, m1 = 0.009356	0.0803
313.15 K, m1 = 0.009621	0.0823
313.15 K, m1 = 0.009883	0.0842
313.15 K, m1 = 0.01024	0.0869
313.15 K, m1 = 0.01049	0.0888
